Data: US20220062250A1, “COMBINATION OF A SK2 INHIBITOR AND AN INHIBITOR OF A CHECKPOINT PATHWAY, USES AND PHARMACEUTICAL COMPOSITIONS THEREOF” (Apogee Biotechnology Corporation, priority 2019, published 2022)

How the values were obtained:
PAN02 = assay: Surface expression of calreticulin by flow cytometry, PAN02; assay type: cell-based; details: PAN02 (Pancreas); 40 μM ABC294640, 24 hours; relative to DMSO control = 1.0; logarithmic scale (2.0 = 10-fold increase)
Description: (§1) One indicator that tumor cells are undergoing immunogenic cell death (ICD) is increased expression of calreticulin on the surface of the cells. Calreticulin is normally expressed in the endoplasmic reticulum (ER) of cells; however, when cells are treated with an agent that promotes ER stress, calreticulin expression can be observed on the external surface of the cells. Promotion of ER stress is a typical mechanism for inducing ICD, and therefore measuring the surface expression of calreticulin is an established method for determining if a compound causes ICD. The effects of ABC294640, an inhibitor of sphingosine kinase-2, on the surface expression of calreticulin in several different types of tumor cells were examined. […] The cells were then incubated with a fluorescently labeled antibody that selectively binds to calreticulin, washed and then analyzed by flow cytometry to quantify the amount of surface calreticulin on many individual cells. The resulting data is analyzed by determining the geometric mean of the fluorescence intensity for the population of cells using algorithms well known in the field of flow cytometry. […] The geometric mean of the fluorescence intensity for cell samples treated with DMSO was expressed as 1.0 and the data for cell samples treated with ABC294640 were expressed relative to the DMSO control. […]

TRAMP-C2 = assay: Surface expression of calreticulin by flow cytometry, TRAMP-C2; assay type: cell-based; details: TRAMP-C2 (Prostate); 40 μM ABC294640, 24 hours; relative to DMSO control = 1.0; logarithmic scale
Description: as §1

Neuro-2a = assay: Surface expression of calreticulin by flow cytometry, Neuro-2a; assay type: cell-based, murine; details: Neuro-2a (Neuroblastoma); 40 μM ABC294640, 24 hours; relative to DMSO control = 1.0; logarithmic scale
Description: as §1

E0771 = assay: Surface expression of calreticulin by flow cytometry, E0771; assay type: cell-based; details: E0771 (Breast); 40 μM ABC294640, 24 hours; relative to DMSO control = 1.0; logarithmic scale
Description: as §1

Lewis Lung carcinoma = assay: Surface expression of calreticulin by flow cytometry, Lewis Lung carcinoma; assay type: cell-based, murine; details: 40 μM ABC294640, 24 hours, relative to DMSO control = 1.0, logarithmic scale
Description: as §1

B16-F10 = assay: Surface expression of calreticulin by flow cytometry, B16-F10; assay type: cell-based, murine; details: B16-F10 (Melanoma); 40 μM ABC294640, 24 hours; relative to DMSO control = 1.0; logarithmic scale
Description: as §1

B16 tumors [1] = assay: B16 tumor model, ABC294640 in combination with anti-PD-1 antibody (Example 8); assay type: in vivo, C57BL/6 mice
Description: Agents that induce ICD may enhance the antitumor activity of checkpoint antibodies. […] Anti-mouse PD-1 (Catalog number BE0146) antibody was purchased from BioXCell (West Lebanon, N.H.). C57BL/6 mice were injected with 100,000 B16 cells suspended in PBS into the right hind flank subcutaneously on Day 0 of the experiment. Mice were randomized on Day 3 of the experiment into the following four treatment groups (n=10/group): Control (vehicle only); ABC294640 alone; anti-PD-1 antibody alone; and ABC294640 in combination with anti-PD-1 antibody. ABC294640 was suspended in vehicle (46.7% PEG, 46.7% saline and 6.6% ethanol) and dosed by oral gavage at 50 mg/kg 5 days/week (i.e. days 3-7, 10-14, 17-21, etc.) until sacrifice. Anti-PD-1 antibody was suspended in sterile PBS, and administered by intraperitoneal (i.p.) injection at a dose of 200 μg/mouse on Days 3, 6 and 10. The combination treatment group mice received antibody and ABC294640 treatments concomitantly on days when antibody was scheduled. Control group mice received oral vehicle and/or sterile PBS i.p. on all days that treated mice received either ABC294640 or antibody. Tumors were measured with digital calipers three times per week and volumes were calculated using the formula, (L×W^2)/2. Mice were euthanized when tumor volumes reached ≥3,000 mm^3. […] Tumors in the Control mice grew very aggressively after a lag of approximately 10 days. On Day 19, the average tumor volumes for the Control, ABC294640 alone, anti-PD-1 antibody alone, and combination treatment groups were 1702±373, 892±364, 783±265 and 190±114 mm^3, respectively. […] As directed by the IACUC protocol, each mouse was sacrificed when its tumor volume reached 3,000 mm^3. […] Treatment with ABC294640 alone provided a median survival of 24 days and 30% of the mice were alive on Day 56 when the experiment was terminated (p=0.009).

LLC tumors = assay: LLC tumor model, ABC294640 in combination with anti-CTLA4 antibody (Example 9); assay type: in vivo, mice
Description: The combined effects of treating tumor-bearing mice with ABC294640 and anti-CTLA41 antibody were examined in the LLC tumor model. Anti-mouse CTLA-4 (catalog number BE0131) antibody was purchased from BioXCell (West Lebanon, N.H.). Mice were injected with 1,000,000 LLC cells suspended in PBS into the right hind flank subcutaneously on Day 0 of the experiment. Mice were randomized On Day 3 of the experiment into the following four treatment groups (n=5/group): Control (vehicle only); ABC294640 alone; anti-CTLA4 antibody alone; and ABC294640 in combination with anti-CTLA4 antibody. ABC294640 was suspended in vehicle (46.7% PEG, 46.7% saline and 6.6% ethanol) and dosed by oral gavage at 50 mg/kg 5 days/week (i.e. days 3-7, 10-14, 17-21, etc.) until sacrifice. Anti-CTLA4 antibody was suspended in dilution buffer (BioXCell, catalog number IP0070) and administered by intraperitoneal (i.p.) injection at a dose of 200 μg/mouse on Days 3, 6, 10, 13, 17 and 20. The combination treatment group mice received antibody and ABC294640 treatments concomitantly on days when antibody was scheduled. Control group mice received oral vehicle and/or sterile PBS i.p. on all days that treated mice received either ABC294640 or antibody. Tumors were measured with digital calipers three times per week and volumes were calculated using the formula, (L×W^2)/2. Mice were euthanized when tumor volumes reached ≥3,000 mm^3. […] Tumors in the Control mice grew progressively after a lag of approximately 7 days. On Day 21, the average tumor volumes for the Control, ABC294640 alone, anti-CTLA4 antibody alone, and combination treatment groups were 4622±548, 3197±914, 3029±675 and 1274±336 mm^3, respectively. […] As directed by the IACUC protocol, each mouse was sacrificed when its tumor volume reached 3,000 mm^3. […] The combination of ABC294640 plus anti-CTLA4 antibody increased median survival to >26 days, and 60% of these mice survived to Day 26.

B16 tumors [2] = assay: B16 tumor model, ABC294640 in combination with anti-PD-L1 antibody (Example 10); assay type: in vivo, mice; details: B16 tumors ≥300 mm^3 at randomization (Day 1); ABC294640 50 mg/kg oral gavage 5 days/week; anti-PD-L1 antibody 200 μg/mouse i.p. Days 1, 3, 5 and 7; Vehicle 8.5
Description: The combined effects of treating tumor-bearing mice with ABC294640 and anti-PD-L1 antibody were examined in the B16 tumor model. Anti-mouse PD-L1 (catalog number BE0101) antibody was purchased from BioXCell (West Lebanon, N.H.). Mice were injected with 100,000 B16 cells suspended in PBS into the right hind flank subcutaneously on Day 0 of the experiment. When the tumor reached a volume of ≥300 mm^3, mice were randomized into the following four treatment groups (n=5-6/group): Control (vehicle only); ABC294640 alone; anti-PD-L1 antibody alone; and ABC294640 in combination with anti-PD-L1 antibody. The day of randomization is noted as Day 1 of the experiment for each mouse. ABC294640 was suspended in vehicle (46.7% PEG, 46.7% saline and 6.6% ethanol) and dosed by oral gavage at 50 mg/kg 5 days/week until sacrifice. Anti-PD-L1 antibody was suspended in dilution buffer (BioXCell, catalog number IP0070) and administered by intraperitoneal (i.p.) injection at a dose of 200 μg/mouse on Days 1, 3, 5 and 7. The combination treatment group mice received antibody and ABC294640 treatments concomitantly on days when antibody was scheduled. Control group mice received oral vehicle and/or sterile PBS i.p. on all days that treated mice received either ABC294640 or antibody. Tumors were measured with digital calipers three times per week and volumes were calculated using the formula, (L×W^2)/2. […]

[3] = given intravenously every 2 weeks; cited from earlier work

| Molecule | Surface calreticulin expression (Geometric mean of fluorescence intensity) (PAN02) | Surface calreticulin expression (Geometric mean of fluorescence intensity) (TRAMP-C2) | Surface calreticulin expression (Geometric mean of fluorescence intensity) (Neuro-2a) | Surface calreticulin expression (Geometric mean of fluorescence intensity) (E0771) | Surface calreticulin expression (Geometric mean of fluorescence intensity) (Lewis Lung carcinoma) | Surface calreticulin expression (Geometric mean of fluorescence intensity) (B16-F10) | median survival (B16 tumors [1]; B16 tumor-bearing mice, sacrificed at tumor volume 3,000 mm^3, Control 21 days) | mice alive on Day 56 (B16 tumors [1]; B16 tumor-bearing mice, experiment terminated Day 56, all Control animals sacrificed by Day 29) | average tumor volume (B16 tumors [1]; B16 tumors, Day 19, ABC294640 50 mg/kg oral gavage 5 days/week, anti-PD-1 antibody 200 μg/mouse i.p. Days 3, 6 and 10, Control 1702±373) | growth of B16 melanoma tumors (FIG. 6) (B16 tumors [1]; in words) | survival of mice bearing B16 melanoma tumors (FIG. 7) (B16 tumors [1]; in words) | median survival (LLC tumors; LLC tumor-bearing mice, sacrificed at tumor volume 3,000 mm^3, Control 19 days) | average tumor volume (LLC tumors; LLC tumors, Day 21, ABC294640 50 mg/kg oral gavage 5 days/week, anti-CTLA4 antibody 200 μg/mouse i.p. Days 3, 6, 10, 13, 17 and 20, Control 4622±548) | growth of LLC lung tumors (FIG. 8) (LLC tumors; in words) | survival of mice bearing LLC tumors (FIG. 9) (LLC tumors; in words) | median survival (B16 tumors [2]) | tolerated dose [3] |
| --- | --- | --- | --- | --- | --- | --- | --- | --- | --- | --- | --- | --- | --- | --- | --- | --- | --- |
| O=C(NCc1ccncc1)C12CC3CC(C1)CC(c1ccc(Cl)cc1)(C3)C2 [ABC294640, 3-(4-chlorophenyl)-adamantane-1-carboxylic acid (pyridin-4-ylmethyl)amide] | 2.31 | 3.64 | 3.0 | 1.46 | 3.0 | 2.7 | 24 days | 30% | 892±364 mm^3 | partially inhibited | slightly prolonged | 22 days | 3197±914 mm^3 | partially inhibited | slightly prolonged | 10 days |  |
| nivolumab |  |  |  |  |  |  |  |  |  |  |  |  |  |  |  |  | up to 10 mg/kg |
